{"source": "patent US7030060B1", "about": "“Rest-breaking composition and use thereof” (Akzo Nobel N.V., priority 1999, dated 2006)", "tested_on": "Golden Delicious apples", "assay": "Usability of the organic nitrogen compound for rest-breaking", "format": "in vivo", "details": "South Africa", "from_the_text": "It is to be understood that not all compounds may work on all deciduous fruit species in all orchards.", "data": [{"substance": "choline borate", "values": [{"measurement": "Usability on Golden Delicious apples", "value": "could not be used"}]}]}
